ChEMBL document CHEMBL3580542, “Inhibitors of the PD-1/PD-L1 Pathway Can Mobilize the Immune System: An Innovative Potential Therapy for Cancer and Chronic Infections” (ACS Med Chem Lett, 2015)

Molecular target: Programmed cell death 1 ligand 1 (Homo sapiens, UniProt Q9NZQ7)
Experiment: Binding affinity to His-tagged PD-L1 (unknown origin) assessed as inhibition of interaction with PD1 preincubated for 15 mins followed by PD1 addition measured after 15 mins by HTRF assay

Programmed cell death 1 ligand 1, sequence (Q9NZQ7 whole entry): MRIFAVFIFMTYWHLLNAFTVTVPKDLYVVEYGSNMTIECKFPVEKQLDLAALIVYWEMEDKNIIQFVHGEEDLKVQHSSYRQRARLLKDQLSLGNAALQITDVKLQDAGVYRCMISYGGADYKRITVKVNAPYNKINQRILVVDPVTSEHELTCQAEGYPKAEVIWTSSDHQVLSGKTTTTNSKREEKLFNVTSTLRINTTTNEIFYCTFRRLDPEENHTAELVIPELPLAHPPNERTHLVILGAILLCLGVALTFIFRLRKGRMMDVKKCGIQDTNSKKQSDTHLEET

SMILES | IC50
COc1cc(OCc2cccc(-c3ccccc3)c2C#N)cc(OC)c1CN1CCCC[C@H]1C(=O)O | 0.006 µM
Cc1cc(CN2CCC(C(=O)NCCO)CC2)ccc1OCc1cccc(-c2ccccc2)c1C | 0.11 µM
